Measured values reported in patent US20150299648A1, “IMPROVED CULTIVATION MEDIA AND PROCESS FOR IMPROVED PROTEIN PRODUCTION BY PICHIA STRAINS” (priority 2012, published 2015).
“Also recorded” adds a separate entry of the source.

Assays:
[1] = test system: P. pastrois strain yGLY21058; assay: Fermentability of sugars or sugar alcohols on M agar plate; format: cell-based, Pichia pastoris; settings: 6 days at 30° C.; for Fermentability category from colony formation on the plate: minimal agar plate; for Growth on M agar: single carbon source 1% w/v
Procedure: The 1 mL of RCB (Research Cell Bank in 20% of glycerol) for P. pastrois strain yGLY21058 producing glycosylated insulin precursor (GIP) was inoculated in 200 mL of Seed medium (4% glycerol, 1% yeast extract, 2% soytone, 1.34% YNB without amino acids, 0.23% K2HPO4, 1.19% KH2PO4, 8 μg/L biotin) and cultivated for 48 h at 24° C. The cell pellet was harvested by centrifugation at 4,000 rpm for 10 min and re-suspended with PBS buffer (pH 7.4) to wash the cell twice. The 0.1 mL of cell suspension with wash buffer was transferred and spread onto the minimal agar plate containing each sugar or sugar alcohol (1% w/v), which is listed in Table 1.
YPD (1% yeast extract, 2% yeast peptone, and 1% glucose) agar plate was used for the positive control and a minimal agar plate without carbon sources (M) was used for negative control. Growth of Pichia pastoris on M agar plate containing single carbon source was categorized as no (−), slow (+), moderate (++), and fast (+++) colony formation for 6 days in Table 1.

[2] = Osmolality of sugar and sugar alcohol solutions (osmometer); format: physicochemical; settings: 500 mM in water
Procedure: The sugar and sugar alcohol solutions used as osmoprotectant supplements were prepared at 500 mM in water and their osmolalities were measured using Osmometer (Multi-somotte, Model 2430, Precision Systems Inc, MA, USA). The osmolality of solution was directly proportional to the concentration of component in solution. For instance there was a linear relationship between sorbitol concentration (mM) and osmolality of the solution (mOsm/kg) as shown in FIG. 1A. The osmolalities of maltitol, sorbitol, glycerol, and glucose at 500 mM in water were 590±4, 544±3, 541±3, and 568±0 mOsm/kg respectively (FIG. 1B). The osmolaties of sorbose, mellibiose, ribose, quinic acid and myo-inositol at 500 Mm in water were (480±5), (500±5), (470±5), (480±5) AND (510±10), respectively.

[3] = test system: P. pastoris YGLY21058 strain producing glycosylated insulin precursor (GIP); assay: Screening of sugars and sugar alcohols as osmoprotectants in fed-batch cultivation; format: cell-based, Pichia pastoris; settings: for Intact GIP molecule after 80 h-induction (SDS-PAGE): 50 g/L in initial batch medium of BSGY; for Index of cell lysis (double stranded DNA released into culture medium): 50 g/L in initial batch BSGY, 80 h of induction
Procedure: The P. pastoris YGLY21058 strain was cultivated in 1 L glass bioreactors (DASGIP, Germany). For fermentation in 1 L bioreactor, a vial (1 mL) of RCB (Research Cell Bank) was inoculated into 200 mL of Seed medium in 1 L-baffled flask. The culture incubated at 24° C., while shaking on an orbital shaker at 180 rpm for 48±4 h. The bioreactor was inoculated with a 10% volumetric ratio of seed to initial BSGY medium. Cultivation conditions were following: temperature set at 24±0.5° C., pH controlled at 6.5±0.1 with 30% ammonium hydroxide, dissolved oxygen was maintained at 20% of saturation by cascading agitation rate on the addition of pure oxygen to the fixed airflow rate of 0.7 vvm. After depletion of the initial glycerol (4%), a 50% glycerol solution containing 12.5 mL/L of PTM1 salts (6.5 g FeSO4.7H2O, 2.0 g ZnCl2, 0.6 g CuSO4.5H2O, 3.0 g MnSO4.7H2O, 0.5 g CoCl2.6H2O, 0.2 g NaMoO4.2H2O, 0.2 g biotin, 80 mg NaI, 20 mg H3BO4 per L) was fed constantly at an initial rate of 0.08 h^−1 for 8 h. Induction was initiated after a 30 min starvation phase when methanol was fed. Methanol was fed constantly starting at 1.33 g/L/h under methanol limited condition. Agitation speed was changed from cascade mode with agitation speed and pure oxygen.
For comparisons, each sugar or sugar alcohol was added at 50 g/L in initial batch medium of BSGY. In case of control without sugar supplementation (BSGY medium only), glycosylated insulin precursor (GIP) was detectable at 58 h of induction, but not detected at 80 h of induction due to most likely proteolytic degradation caused by heavy cell lysis (Lanes 1 and 2 of FIG. 2 A).

[4] = test system: P. pastoris YGLY 21058 strain; assay: Fermentability of sorbitol and maltitol determined by HPLC; format: cell-based, Pichia pastoris; settings: BSGY; maltitol 50 g/L; methanol induction phase
Procedure: The P. pastoris YGLY 21058 strain was cultivated in 1 L bioreactor and 50 g/L of maltitol was mixed in BSGY medium. The samples were taken at the beginning of fermentation, at the end of glycerol fed-batch before adding maltitol, and two different time-points in methanol induction phase, as shown in FIG. 3. The supernatant was separated by the centrifugation at 13,000 rpm for 1 minutes using micro-centrifuge. The samples properly diluted with distilled water were filtered using 0.2 μm-filter and the residual concentrations of sorbitol and maltitol were determined by HPLC using AMINEX HPX-87H column. The residence times (RTs) for sorbitol and maltitol were 11.5 and 9.3 min respectively. The data were shown in FIG. 3 as two independent runs of cultivation.

Compound | Fermentability category from colony formation on the plate [1] | Growth on M agar [1] | Osmolality of solution [2] | Intact GIP molecule after 80 h-induction (SDS-PAGE) [3] | Robustness of Pichia production strains ([3]; methanol induction phase of cultivation) | Index of cell lysis (double stranded DNA released into culture medium) [3] | Consumption / fermentability in fed-batch fermentation (residual concentration by HPLC) [4]
O=C1O[C@H](CO)[C@@H](O)[C@H](O)[C@H]1O [D-Glucono-1,5-lactone] | strict non-fermentable substrates | − |  |  |  |  | 
O=C(CO)[C@@H](O)[C@H](O)[C@@H](O)CO [L-Sorbose] | very slow colony formation | + | 480±5 mOsm/kg | intact GIP molecule was maintained |  |  | 
OC[C@@H](O)[C@@H](O)[C@@H](O)CO [D-Ribitol] | strict non-fermentable substrates | − |  |  |  |  | 
OC[C@H]1O[C@H](O[C@H]2[C@H](O)[C@@H](O)[C@H](O)O[C@@H]2CO)[C@H](O)[C@@H](O)[C@@H]1O [D-Maltose] | strict non-fermentable substrates | − |  |  | significantly improved the robustness |  | 
O=C[C@H](O)[C@H](O)[C@H](O)CO [D-Ribose] | very slow colony formation | + | 470±5 mOsm/kg | intact GIP molecule was maintained |  | much lower than that of control | 
Inulin | very slow colony formation | + |  |  |  |  | 
OC[C@H](O)C(O)[C@@H](O)CO [L-Arabitol] | strict non-fermentable substrates | − |  |  |  |  | 
OC[C@H]1O[C@H](O[C@H]2O[C@H](CO)[C@@H](O)[C@H](O)[C@H]2O)[C@H](O)[C@@H](O)[C@@H]1O [α,α-Trehalose] |  | ++ |  |  |  |  | 
OC[C@@H](O)[C@H](O)[C@@H](O)CO [Xylitol] | strict non-fermentable substrates | − |  |  |  |  | 
OC[C@H]1O[C@H](OCC2O[C@@H](O)[C@H](O)[C@@H](O)[C@@H]2O)[C@H](O)[C@@H](O)[C@H]1O (stereo partly drawn) [D-Melibiose] | very slow colony formation | + | 500±5 mOsm/kg | intact GIP molecule was maintained |  |  | 
O[C@H]1[C@H](O)[C@@H](O)[C@H](O)[C@@H](O)[C@H]1O [myo-Inositol] | very slow colony formation | + | 510±10 mOsm/kg | intact GIP molecule was maintained |  | much lower than that of control | 
OCC(O)CO [Glycerol] |  | +++ | 541±3 mOsm/kg |  |  |  | 
OC[C@H]1O[C@H](OC[C@H]2O[C@H](O[C@]3(CO)O[C@H](CO)[C@@H](O)[C@@H]3O)[C@H](O)[C@@H](O)[C@@H]2O)[C@H](O)[C@@H](O)[C@H]1O [D-Raffinose] |  | ++ |  |  |  |  | 
O=C[C@@H](O)[C@H](O)[C@H](O)CO [D-Arabinose] | strict non-fermentable substrates | − |  | intact GIP molecule was maintained |  | much lower than that of control | 
OC[C@@H](O)[C@@H](O)[C@H](O)[C@@H](O)CO [D-Sorbitol] |  | +++ | 544±3 mOsm/kg |  |  |  | actively metabolized; also recorded: highly fermentable
O=C[C@H](O)[C@@H](O)[C@H](O)CO [D-Xylose] | very slow colony formation | + |  |  |  |  | 
O=C[C@H](O)[C@@H](O)[C@H](O)[C@H](O)CO [D-Glucose] |  | +++ | 568±0 mOsm/kg |  |  |  | 
O=C(O)[C@]1(O)C[C@@H](O)[C@@H](O)[C@H](O)C1 [D-Quinic acid] | strict non-fermentable substrates | − | 480±5 mOsm/kg |  |  |  | 
O=C(O)[C@H](O)[C@@H](O)[C@H](O)[C@H](O)CO [D-Gluconate] | very slow colony formation | + |  |  |  |  | 
